From paper PMC8425678, “1-Oxo-3,4-dihydroisoquinoline-4-carboxamides as novel druglike inhibitors of poly(ADP-ribose) polymerase (PARP) with favourable ADME characteristics” (Journal of Enzyme Inhibition and Medicinal Chemistry, 2021)
Where two headings read alike, the source gives them in different places.

Legend:
[1] = biological target: T1, PARP1 (Homo sapiens, UniProt P09874); conditions: cited from earlier work
T1 construct: purchased BPS Bioscience (San Diego, CA)

[2] = biological target: T2, PARP2 (Homo sapiens, UniProt Q9UGN5); conditions: cited from earlier work; for selectivity index (SI): PARP2 selectivity
T2 construct: purchased BPS Bioscience (San Diego, CA)
T2 sequence (Q9UGN5 whole entry): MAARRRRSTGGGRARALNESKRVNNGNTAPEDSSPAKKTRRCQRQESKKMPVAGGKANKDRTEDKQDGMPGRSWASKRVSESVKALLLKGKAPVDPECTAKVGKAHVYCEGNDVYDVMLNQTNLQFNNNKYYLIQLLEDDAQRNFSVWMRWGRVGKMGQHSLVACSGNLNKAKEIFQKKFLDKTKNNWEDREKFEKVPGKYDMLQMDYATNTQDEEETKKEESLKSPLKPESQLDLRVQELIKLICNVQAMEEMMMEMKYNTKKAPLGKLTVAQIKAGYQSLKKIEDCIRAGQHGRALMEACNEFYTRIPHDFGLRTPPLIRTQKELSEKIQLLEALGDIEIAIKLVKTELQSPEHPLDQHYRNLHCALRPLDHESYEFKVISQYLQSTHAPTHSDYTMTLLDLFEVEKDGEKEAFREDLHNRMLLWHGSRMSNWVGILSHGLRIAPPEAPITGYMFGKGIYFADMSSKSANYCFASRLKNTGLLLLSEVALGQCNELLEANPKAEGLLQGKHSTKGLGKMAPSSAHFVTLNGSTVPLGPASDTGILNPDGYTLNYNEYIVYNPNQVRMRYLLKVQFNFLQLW

[3] = biological target: T1, PARP1; test: PARP1 colorimetric activity assay kit (BPS Bioscience); type: biochemical; conditions: for IC50: dose-response, mean (n = 3) ± SD, r^2 in brackets; for inhibition at 1 µM: read-out: PARP1 % inhibition at 1 µM, 1 µM compound, triplicate (n = 3)
Method: (§1) The thirty-six 1-oxo-3,4-dihydroisoquinoline-4-carboxamides 3a-aj and 1-oxoisoquinoline-4-carboxamide 11 were tested for inhibitory activity towards PARP1 and PARP2 using the commercially available colorimetric activity assay kit from BPS Bioscience (San Diego, CA) in full accordance of the supplier’s method description[13]^,[14]. The initial screening was performed against PARP1 at 1 µM concentration of each compound, in triplicate (n = 3) measurements.

[4] = biological target: T2, PARP2; test: PARP2 colorimetric activity assay kit (BPS Bioscience); type: biochemical; conditions: for IC50: dose-response, mean (n = 3) ± SD, r^2 in brackets
Method: as §1

[5] = Aqueous PBS solubility determination; type: physicochemical; conditions: sodium phosphate buffer, kinetic from dmso stock, pH 7.4 0.01 M phosphate buffer solution, 37 °C
Method: The stock solution of the compound tested in DMSO (10 mM) was diluted with 0.01 M sodium phosphate buffer solution (pH 7.4) to the concentration of 100 µM, 80 µM, 60 µM, 50 µM, 40 µM, 30 µM, 20 µM and 10 µM. The serially diluted solutions were transferred into a 96-well plate (Corning 3635, UV Plate) and the plate was incubated at 37 °C for 2 h using BioSan PST-60HL-4 thermo shaker. The plate was read at the wavelength of 620 nm using spectrophotometric microplate reader Sunrise (Tecan, Australia). The optical density values were plotted against compound concentration and approximated by a linear relationship to determine the aqueous solubility.

[6] = Stability in human liver S9 fraction; type: in vitro ADME; conditions: human liver S9 0.5 mg/mL, 10 μM compound, 37 °C; intrinsic clearance
Method: (§2) The rate of enzymatic degradation of the compound in liver microsomes was determined by incubating a mixture containing 0.5 mg/mL of pooled human liver microsomes (XenoTech, USA, cat. # H2620), 10 μM of compound tested, 2 mM β-nicotinamide adenine dinucleotide (Carbosynth, UK, cat. # NN10871) and 4 mM magnesium chloride in 0.1 M sodium phosphate buffer (pH 7.4) in a solid-state thermostat at 37 °C. The rate of enzymatic degradation of the compound in human liver S9 fraction was determined by incubating a reaction mixture containing 0.5 mg/mL of pooled S9 human liver fractions (XenoTech, USA, cat # H0610), 10 μM of compound tested, 2 mM β-nicotinamide adenine dinucleotide (Carbosynth, UK, cat # NN10871) and 4 mM magnesium chloride in 0.1 M sodium phosphate buffer (pH 7.4) in a solid-state thermostat at 37 °C. The reaction was stopped with acetonitrile (100 μL MeCN per 100 μL of the reaction mixture). After stopping the reaction, the samples were centrifuged for 10 min at 10,000 rpm. The supernatant was analysed by chromatography using an Agilent 1260 chromatograph (Agilent, United States). Chromatographic analysis was performed in a gradient elution mode at a flow rate of 1 ml/min. A graph of the dependence of the logarithm of the area of the peak of the substance on time was built. The dependent coefficient of this straight line corresponded to the elimination constant k, on the basis of which the half-life of the drug (T1/2) and intrinsic clearance (Clint) were calculated.

[7] = Stability in human liver microsomes; type: in vitro ADME; conditions: HLM 0.5 mg/mL, 10 μM compound, 37 °C; intrinsic clearance
Method: as §2

[8] = Plasma stability determination; type: in vitro ADME, human; conditions: 4 h, 37 °C, 10 μM
Method: Determination of stability in human blood plasma was carried out using pooled human blood plasma obtained from ten healthy donors. The candidate stock solution (10 mM in DMSO) was diluted with the pooled blood plasma to a concentration of 10 μM (test solution). The test solution was kept in a solid-state thermostat for 4 h at a temperature of 37 °C. HPLC method using an Agilent 1260 chromatograph (Agilent, USA) was employed to determine the peak area of the compounds in the test samples corresponding to the initial test time (before exposure) and the final test time (after incubation in a solid-state thermostat for 4 h at 37 °C) with preliminary precipitation of protein mass with acetonitrile (300 μL MeCN per 100 μL of the reaction mixture). After stopping the reaction, the samples were centrifuged for 10 min at 10,000 rpm and the supernatant was collected. Chromatographic analysis was performed in a gradient elution mode at a flow rate of 1 ml/min.

[9] = Plasma protein binding determination (RED dialysis); type: in vitro ADME; conditions: pooled human blood plasma, 37 °C, read-out: plasma protein binding (% bound) (converted)
Method: Determination of binding to human blood plasma proteins was carried out using pooled human blood plasma obtained from ten healthy donors. Determination was performed using Thermo Scientific ™ Single-RED dialysis plates. Test solutions of the candidate (10 mM in DMSO) were prepared in blood plasma and in 0.01 M sodium phosphate buffer by dilution in pooled blood plasma to a concentration of 10 μM (test solution 1) and in buffer to a concentration of 10 μM (test solution 2), respectively. The test solutions were transferred to the chambers of the dialysis plate, incubated in an Environmental Shaker – Incubator ES-20/60 (Biosan, Latvia) for 4 h at a temperature of 37 °C at a speed of 130–250 rpm. During the incubation, passive diffusion of the unbound compound occurs, and after 4 h, equilibrium is reached between the chambers with plasma with buffer solution. At the end of the incubation time, samples were taken from the chambers of the plate. HPLC analysis performed using an Agilent 1260 chromatograph (Agilent, USA) allowed determination of the peak area of the compounds in the test samples with preliminary precipitation of proteins with acetonitrile (300 µL of acetonitrile per 100 µL of the reaction mixture). After stopping the reaction, the samples were centrifuged for 10 min at 10,000 rpm and the supernatant was collected.
The concentration of the test compound in the buffer and plasma chambers was calculated using the formula: С=At=4/At=0×10, where At=0 is the value of the peak area of the candidate's test solution on the chromatogram at the initial moment of time;
The % unbound compound was calculated using the formula: %Free=C1/C2×100, where C1 is the concentration value in the buffer chamber;

T1 sequence (P09874 whole entry): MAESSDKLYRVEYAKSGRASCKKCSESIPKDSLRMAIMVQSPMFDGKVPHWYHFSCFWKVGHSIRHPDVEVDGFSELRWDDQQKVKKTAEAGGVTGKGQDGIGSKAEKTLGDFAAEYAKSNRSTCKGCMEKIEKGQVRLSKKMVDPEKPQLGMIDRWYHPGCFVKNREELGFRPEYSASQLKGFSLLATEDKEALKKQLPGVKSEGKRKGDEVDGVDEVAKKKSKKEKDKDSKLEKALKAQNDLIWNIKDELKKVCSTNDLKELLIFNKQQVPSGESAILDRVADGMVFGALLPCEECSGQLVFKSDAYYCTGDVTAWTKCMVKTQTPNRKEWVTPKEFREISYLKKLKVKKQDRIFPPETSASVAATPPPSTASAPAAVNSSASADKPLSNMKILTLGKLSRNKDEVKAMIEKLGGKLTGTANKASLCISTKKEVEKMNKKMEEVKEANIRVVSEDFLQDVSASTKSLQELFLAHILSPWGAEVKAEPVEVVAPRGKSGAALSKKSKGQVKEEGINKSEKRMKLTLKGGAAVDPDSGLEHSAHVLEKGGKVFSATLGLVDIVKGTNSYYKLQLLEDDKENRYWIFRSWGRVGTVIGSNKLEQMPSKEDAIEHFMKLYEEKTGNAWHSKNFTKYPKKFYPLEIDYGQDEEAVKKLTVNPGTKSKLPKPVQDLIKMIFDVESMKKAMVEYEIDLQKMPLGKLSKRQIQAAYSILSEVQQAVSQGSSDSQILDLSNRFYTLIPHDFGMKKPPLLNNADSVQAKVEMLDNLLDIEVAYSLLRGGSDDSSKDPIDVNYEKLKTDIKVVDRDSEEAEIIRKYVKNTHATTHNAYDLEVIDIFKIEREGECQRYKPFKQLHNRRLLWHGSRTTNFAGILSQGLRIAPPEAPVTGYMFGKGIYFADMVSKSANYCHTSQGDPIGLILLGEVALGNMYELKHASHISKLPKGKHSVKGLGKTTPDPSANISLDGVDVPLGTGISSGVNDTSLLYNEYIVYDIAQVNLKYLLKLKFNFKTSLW

Row | IC50 [3] | fold better potency compared to 3l ([3]; magic fluorine effect, 3aa vs 3l) | inhibition at 1 µM [3] | SI, selectivity index (PARP2 over PARP1) [4] | IC50 [4] | solubility at 2 h [5] | Stability in the presence of hepatic S9 fraction [6] | Stability in the presence of human liver microsomes [7] | % compound remaining after incubation with human plasma [8] | fraction unbound at 4 h, 10 µM [9] | PARP1 inhibitory potency in words ([3]; compared with 3l) | Structure (SMILES) | IC50 [1] | selectivity index (SI) [2] | IC50 [2]
1 | 63.1 ± 5.3 nM | ~2.5 fold | 91.8 ± 0.7% | 2.17 | 29.4 ± 4.5 nM | > 100 µM | 0.1 µL/min/mg | 3.4 µL/min/mg | 100% | 0.29 |  | O=C1NCC(C(=O)N2CCC(N3CCCCC3)CC2)c2ccc(F)cc21 (stereo not shown) [Compound 3aa, 4-([1,4'-Bipiperidine]-1'-carbonyl)-7-fluoro-3,4-dihydroisoquinolin-1(2H)-one] |  |  | 
2 | 156 ± 5.8 nM |  | 85.2 ± 2.6% | 2.23 | 70.1 ± 7.6 nM | > 100 µM | 0.3 µL/min/mg | 2.6 µL/min/mg | 92.6% | 0.332 | active | O=C1NCC(C(=O)N2CCC(N3CCCCC3)CC2)c2ccccc21 (stereo not shown) [Compound 3l, 4-([1,4'-Bipiperidine]-1'-carbonyl)-3,4-dihydroisoquinolin-1(2H)-one] |  |  | 
3 |  |  |  |  |  | > 100 µM | 1.1 µL/min/mg | 15 µL/min/mg | 100% | 0.098 |  | O=C(c1cc(Cc2n[nH]c(=O)c3ccccc23)ccc1F)N1CCN(C(=O)C2CC2)CC1 [Olaparib, reference compound] |  |  | 

The next lines start with the molecule.

Row | Structure (SMILES) | IC50 [3] | fold better potency compared to 3l ([3]; magic fluorine effect, 3aa vs 3l) | inhibition at 1 µM [3] | SI, selectivity index (PARP2 over PARP1) [4] | IC50 [4] | solubility at 2 h [5] | Stability in the presence of hepatic S9 fraction [6] | Stability in the presence of human liver microsomes [7] | % compound remaining after incubation with human plasma [8] | fraction unbound at 4 h, 10 µM [9] | PARP1 inhibitory potency in words ([3]; compared with 3l) | IC50 [1] | selectivity index (SI) [2] | IC50 [2]
4 | O=C(Oc1cccc2c1CCNC2=O)c1ccccc1 [Compound 1a] |  |  |  |  |  |  |  |  |  |  |  | 13000 nM | 16.3 | 800 nM
5 | O=C(Oc1cccc2c(=O)[nH]ccc12)c1ccccc1 [Compound 1b] |  |  |  |  |  |  |  |  |  |  |  | 9000 nM | 60.0 | 150 nM
